# Data reported in publication PMC6165478, “Wine and Olive Oil Phenolic Compounds Interaction in Humans” (Diseases, 2018).
# “And” between values parts separate entries of the source, which are not always exact repeats. Equal entries are not always repeated. Marks after values point to notes of the source that are not given here.
# Legend:
# [1] = Urinary recovery of RESV, its isomers and dihydro-RESV (GC-MS after enzymatic hydrolysis), crossover clinical trial; conditions: for RESV urinary recovery from 0 to 6 h: urine 0-6 h, n = 12, mean ± SD
# Protocol: The study consisted of a crossover randomized clinical trial with three different interventions. The interventions consisted of a single administration of 25 mL of EVOO, 150 mL of RW, or the combination of both 25 mL of EVOO and 150 mL of RW. Treatment quantities were equivalent to normal dietary doses of a typical MD. A total of twelve healthy subjects (50% women, 34.0 ± 10.5, BMI = 22.0 ± 3.3 kg/m^2) participated in the study. The study was explained to participants through verbal and written instructions, and written informed consent was obtained before participation. Volunteers received each treatment in a randomized manner. The study included three experimental sessions in which each intervention was administered under fasting conditions. Each experimental session was preceded by a two-day washout period. The total duration of the study was nine days.
# On the day of the intervention, subjects consumed one of the three interventions within a period of 5–10 min. Urine was collected in separate fractions, at baseline (−2–0 h), to assess dietary compliance and during 6 h after each dietary intervention (0–6 h). The amount of urine in each fraction was measured, acidified with 6 M HCl, and stored at −20 °C until analysis. The study protocol was approved by the Ethics Committee of Parc de Salut Mar (CEIC-PSMAR) (Spain), and the clinical trial was registered at the International Standard Randomized Controlled Trial Number (NCT03614520).
# Urine was subjected to a hydrolysis procedure previously described by our working group. Aliquots of 1 mL of diluted urine (1:10 in water) were spiked with 10 µL of IS (containing 10 µg/mL of diethylstilbestrol), 100 µL of sodium metabisulfite, 1 mL acetate buffer 0.1 M pH 5.2, and 25 µL of β-glucuronidase. The samples were incubated at 37 °C overnight. After incubation, 1 mL of NaOH was added to neutralize the hydrolysis process. For the extraction of the phenolic compounds, 0.5 mL of a saturated solution of NaCl and 4 mL of acetonitrile-ethyl acetate mixture (1:4 v/v) were added. Samples were mixed for 30 min, centrifuged for 5 min at 300 g, and the organic phase was extracted and evaporated until dry. After 1 h in an oven at 50 °C, the residue was derivatized with 75 µL of MSTFA: NH4I:2-mercaptoethanol reaction mixture for 30 min at 60 °C and 2 µL was injected into the gas chromatograph.
# For the preparation of the calibration curves, 1 mL of diluted urine (1:10 in water) was spiked with an increasing concentration of c- and t-RESV and dihydro-RESV (10–200 ng/mL), and subjected to the extraction procedure exactly in the same way as the samples.
# The extracted samples were analyzed using an Agilent Technologies (Santa Clara, CA, USA) 6890 N gas chromatograph coupled to a 5973 mass-selective detector. For chromatographic separation, a 5% phenyl-dimethyl-polysiloxane Zebron™ (Torrance, CA, USA) fused-silica capillary column (15 m × 0.25 mm i.d., 0.25 µm film thickness) was used. The split injection mode using helium as a carrier gas (0.9 mL/min) was applied. The temperatures of the injector and transfer line were set at 280 °C. Gas chromatographic conditions were as follows: initial oven temperature at 80 °C, raised by 20 °C/min to 200 °C, then by 10 °C/min to 300 °C, and maintained at 300 °C for 3 min. […] Ions at m/z 444 (RESV and piceid), m/z 179 (dihydro-RESV), and m/z 412 (diethylstilbestrol), were selected for the quantitative analysis.
# [2] = Ethyl glucuronide quantification in urine (LC-MS/MS); format: in vivo, humans
# Protocol: (§1) Volunteers received each treatment in a randomized manner. […] The total duration of the study was nine days.
# Ethyl glucuronide concentration in urine was used as a marker of alcohol abstinence and compliance with the dietary recommendations before each intervention. To determine urinary concentrations of ethyl glucuronide, aliquots of 30 μL were mixed with 10 μL of IS mix solution (containing 10 μg/mL ethyl-glucuronide-d5 and ethyl-sulfate-d5) and 110 μL of 0.1% formic acid solution in water. The identification and the quantification of ethyl glucuronide were carried out using an Agilent 1200 series HPLC system (Agilent technologies) (Santa Clara, California, CA, USA) coupled to a triple quadrupole (6410 Triple Quad LC/MS; Agilent) mass spectrometer with an electrospray interface. To perform the chromatographic separation, an Acquity UPLC® BEH C18 column with a 1.7 μm particle size, 3 mm × 100 mm (Waters, Milford, MA, USA) was used. The composition of mobile phase A was 0.1% (v/v) formic acid in water, and mobile phase B was 0.1% (v/v) formic acid in acetonitrile.
# [3] = Urinary recovery of HT, TYR and their metabolites (LC-MS/MS), crossover clinical trial; format: in vivo; conditions: urine 0-6 h, n = 12, mean ± SD
# Protocol: as §1
# The quantification of urinary levels of HT and TYR free forms and their metabolites was performed using a solid-phase extraction and following the method previously described. The method was capable of detecting the free forms HT, TYR, and HVALc; the sulfate conjugates HT-sulfate, TYR-sulfate, and HT-acetate-sulfate; and the glucuronide conjugates HT-glucuronide, TYR-glucuronide, and HVALc-glucuronide. Shortly thereafter, aliquots of 0.5 mL of the samples were diluted with 0.5 mL of purified water and spiked with 10 µL of internal standard (containing 10 µg/mL of HT-D3, 3-(4-hydroxyphenyl)-1-propanol, 4-(3-hydroxypropylphenyl) glucuronide and HT-1-sulfate) and stabilized with 1 mL of phosphoric acid 4%. Thereafter, samples were submitted to a solid-phase extraction by means of Oasis HLB columns. Samples were loaded into the cartridges, and the cartridges were then washed with 2 mL of purified water. Finally, the compounds of interest were eluted by adding 2 mL of methanol to the cartridges. Subsequently, the methanol was evaporated until dry using nitrogen (29 °C, 10–15 psi). Finally, the dried extracts were reconstituted in 100 µL of a mixture of mobile phases (91% A/9% B v/v), transferred into HPLC vials, and analyzed by LC-MS/MS.
# Identification and quantification of HT and TYR metabolites was performed using an Agilent 1200 series HPLC system (Agilent technologies, Santa Clara, California, CA, USA) coupled to a triple quadrupole (6410 Triple Quad LC/MS; Agilent) mass spectrometer with an electrospray interface. The chromatographic separation was carried out with an Acquity UPLC® BEH C18 column with a 1.7 μm particle size, 3 mm × 100 mm (Waters, Milford, MA, USA) maintained at 40 °C. The composition of mobile phase A was 0.01% of ammonium acetate (pH 5) in water; mobile phase B was pure methanol. The injection volume was 10 μL and the ion source operated in negative ionization mode.
# [4] = baseline urine (-2 to 0 h), after washout diet
SMILES,RESV urinary recovery from 0 to 6 h ([1]; after single dose 25 mL EVOO),Urinary recovery from 0 to 6 h (single free form or metabolite) ([3]; after 25 mL EVOO + 150 mL RW),Urinary recovery from 0 to 6 h (single free form or metabolite) ([3]; after single dose 25 mL EVOO),Urinary recovery from 0 to 6 h (single free form or metabolite) ([3]; after single dose 150 mL RW),RESV urinary recovery from 0 to 6 h ([1]; after 25 mL EVOO + 150 mL RW),RESV urinary recovery from 0 to 6 h ([1]; after single dose 150 mL RW),further results
"Oc1ccc(C=Cc2cc(O)cc(O)c2)cc1 [RESV, 3,4′,5-Trihydroxystilbene]",,,,,,,"RESV in baseline urine samples [1, 4]: no RESV was observed"
CCO[C@@H]1O[C@H](C(=O)O)[C@@H](O)[C@H](O)[C@H]1O [Ethyl glucuronide],,,,,,,"Ethyl glucuronide recovery in urine ([2]; after EVOO (25 mL)): undetectable; Ethyl glucuronide recovery in urine ([2]; after RW + EVOO intervention): 19.3 ± 7.6 µmols; Ethyl glucuronide recovery in urine ([2]; after RW intervention (150 mL)): 19.0 ± 9.5 µmols; Ethyl glucuronide in urine at baseline [2, 4]: undetectable"
"Oc1ccc(CCc2cc(O)cc(O)c2)cc1 [Dihydro-RESV, Dihydroresveratrol]",0.0 ± 0.0 nmol,,,,13.0 ± 8.3 ^aa nmol,10.9 ± 7.5 ^aa nmol,"RESV urinary recovery from 0 to 6 h ([1]; after 25 mL EVOO + 150 mL RW, listed as dihydro-RESV): 13.0 ± 8.3 nmol; RESV urinary recovery from 0 to 6 h ([1]; after single dose 150 mL RW, listed as dihydro-RESV): 10.9 ± 7.5 nmol"
"COc1cc(CCO)ccc1O [Free HVALc, homovanillyl alcohol]",,247 ± 205 ^bb nmol,269 ± 145 nmol,110 ± 118 ^aa nmol,,,
"OCCc1ccc(O)c(O)c1 [HT, 3,4-dihydroxyphenylethanol]",,386 ± 289 ^bb nmol,367 ± 221 nmol,201 ± 173 ^aa nmol,,,"Total urinary recovery from 0 to 6 h (sum of free form and metabolites) ([3]; after 25 mL EVOO + 150 mL RW): 6286 ± 3198 nmol; Total urinary recovery from 0 to 6 h (sum of free form and metabolites) ([3]; after 25 mL EVOO + 150 mL RW, listed as Total HT): 6286 ± 3198 ^aa bb nmol; Total urinary recovery from 0 to 6 h (sum of free form and metabolites) ([3]; after single dose 25 mL EVOO): 3788 ± 1751 nmol; Total urinary recovery from 0 to 6 h (sum of free form and metabolites) ([3]; after single dose 150 mL RW): 2308 ± 847 nmol; Total urinary recovery from 0 to 6 h (sum of free form and metabolites) ([3]; after single dose 150 mL RW, listed as Total HT): 2308 ± 847 ^a nmol"

# Second part, led by results:
RESV urinary recovery from 0 to 6 h ([1]; after single dose 25 mL EVOO),Urinary recovery from 0 to 6 h (single free form or metabolite) ([3]; after 25 mL EVOO + 150 mL RW),Urinary recovery from 0 to 6 h (single free form or metabolite) ([3]; after single dose 25 mL EVOO),Urinary recovery from 0 to 6 h (single free form or metabolite) ([3]; after single dose 150 mL RW),SMILES,RESV urinary recovery from 0 to 6 h ([1]; after 25 mL EVOO + 150 mL RW),RESV urinary recovery from 0 to 6 h ([1]; after single dose 150 mL RW),further results
0.0 ± 0.0 nmol,,,,"Oc1ccc(C=Cc2cc(O)cc(O)c2)cc1 [c-RESV, 3,4′,5-Trihydroxystilbene]",83.8 ± 62.6 ^aa nmol,72.8 ± 44.3 ^aa nmol,
,460 ± 490 ^b nmol,404 ± 346 nmol,132 ± 114 ^aa nmol,"OCCc1ccc(O)cc1 [TYR, tyrosol]",,,"Total urinary recovery from 0 to 6 h (sum of free form and metabolites) ([3]; after 25 mL EVOO + 150 mL RW): 4925 ± 1751 nmol; Total urinary recovery from 0 to 6 h (sum of free form and metabolites) ([3]; after 25 mL EVOO + 150 mL RW, listed as Total TYR): 4925 ± 3993 ^aa b nmol; Total urinary recovery from 0 to 6 h (sum of free form and metabolites) ([3]; after single dose 25 mL EVOO): 2180 ± 1917 nmol; Total urinary recovery from 0 to 6 h (sum of free form and metabolites) ([3]; after single dose 150 mL RW): 2567 ± 1468 nmol"
0.0 ± 0.0 nmol,,,,"Oc1ccc(C=Cc2cc(O)cc(O)c2)cc1 [t-RESV, 3,4′,5-Trihydroxystilbene]",61.7 ± 42.4 nmol and 61.7 ± 42.4 ^aa nmol,59.2 ± 28.7 nmol and 59.2 ± 28.7 ^aa nmol,
